Results taken from article PMC6271944 (Molecules, 2014).

Experiments:
[1] = biological target: T1, CYP1A2 (Homo sapiens, UniProt P05177); test: CYP inhibition in human liver microsomes, substrate cocktail, LC-MS/MS (phenacetin); format: in vitro ADME; conditions: metabolite acetaminophen, read-out: IC50 for HLM, CYP1A2
T1 construct: Pooled human liver microsomes (HLM, LOT 32556) were purchased from BD Gentest Corporation; tissue BD Gentest Corporation LOT 32556; host or cells: pooled human liver microsomes
T1 sequence (P05177 1-516): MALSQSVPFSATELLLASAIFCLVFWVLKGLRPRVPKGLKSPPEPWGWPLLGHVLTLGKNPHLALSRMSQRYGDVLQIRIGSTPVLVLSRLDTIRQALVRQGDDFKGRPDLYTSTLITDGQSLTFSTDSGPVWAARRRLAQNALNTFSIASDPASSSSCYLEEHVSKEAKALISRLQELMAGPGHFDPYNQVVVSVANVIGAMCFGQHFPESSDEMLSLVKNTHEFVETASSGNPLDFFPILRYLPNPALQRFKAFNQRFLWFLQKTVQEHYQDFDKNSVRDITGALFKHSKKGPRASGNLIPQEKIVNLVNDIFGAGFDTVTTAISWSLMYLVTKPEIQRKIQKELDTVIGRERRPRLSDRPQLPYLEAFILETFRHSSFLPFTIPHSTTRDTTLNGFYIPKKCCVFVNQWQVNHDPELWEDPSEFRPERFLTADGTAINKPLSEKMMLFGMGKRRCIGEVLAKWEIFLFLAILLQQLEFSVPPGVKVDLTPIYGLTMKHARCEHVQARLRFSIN
Text: (§1) Positive controls (furafyline for CYP1A2, montelukast for CYP2C8, sulfaphenazole for CYP2C9, S-(+)-N-3-benzylnirvanol for CYP2C19, quinidine for CYP2D6, ketoconazole for CYP3A4) and specific substrates (phenacetin for CYP1A2, paclitaxel for CYP2C8, diclofenac for CYP2C9, S-mephenytoin for CYP2C19, dextromethorphan for CYP2D6, midazolam for CYP3A4) are consistent with our previous papers. The substrates were used at concentrations approximately equal to their respective Michaelis-Menten constant (Km) values: 10 μM phenacetin, 5 μM paclitaxel, 5 μM diclofenac, 200 μM S-mephenytoin, 5 μM dextromethorphan, and 2 μM midazolam. NADP^+ was added after a 15 min preincubation of all other components at 37 °C. After a given incubation time (30 min), the reactions were terminated by addition of 60 μL ice-cold acetonitrile containing gemfibrozil and buspirone as internal standards. Incubation samples were stored at −80 °C until used in liquid chromatography-tandem mass spectrometry (LC-MS/MS) analysis. The mixture was centrifuged at 3,500 rpm for 5 min. The supernatant was mixed with equal volume of a 1:1 mixture of methanol and water and 20 μL of the final mixture was used for LC-MS/ MS analysis. […]
(§2) The CYP inhibition potential were evaluated by measuring the formation of one or more metabolites of the test substrates. […]

[2] = biological target: T2, CYP2C8 (Homo sapiens, UniProt P10632); test: CYP inhibition in human liver microsomes, substrate cocktail, LC-MS/MS (paclitaxel); format: in vitro ADME; conditions: metabolite 6α-hydroxypaclitaxel, read-out: IC50 for HLM, CYP2C8
T2 construct: Pooled human liver microsomes (HLM, LOT 32556) were purchased from BD Gentest Corporation; tissue BD Gentest Corporation LOT 32556; host or cells: pooled human liver microsomes
T2 sequence (P10632 1-490): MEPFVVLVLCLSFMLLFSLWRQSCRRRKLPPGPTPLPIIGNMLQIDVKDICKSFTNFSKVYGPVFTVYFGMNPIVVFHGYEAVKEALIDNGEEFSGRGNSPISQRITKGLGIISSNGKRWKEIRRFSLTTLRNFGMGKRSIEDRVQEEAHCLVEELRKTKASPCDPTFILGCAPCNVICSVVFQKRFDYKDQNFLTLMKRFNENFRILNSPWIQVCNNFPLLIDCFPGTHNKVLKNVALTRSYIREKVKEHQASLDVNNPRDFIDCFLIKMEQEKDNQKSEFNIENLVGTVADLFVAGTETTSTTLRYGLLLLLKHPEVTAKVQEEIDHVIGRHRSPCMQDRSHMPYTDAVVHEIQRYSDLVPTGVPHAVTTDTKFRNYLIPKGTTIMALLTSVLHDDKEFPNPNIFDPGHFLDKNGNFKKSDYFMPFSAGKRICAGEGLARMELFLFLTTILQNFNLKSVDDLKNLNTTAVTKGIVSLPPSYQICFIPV
Text: as §1, §2

[3] = biological target: T3, CYP2D6 (Homo sapiens, UniProt P10635); test: CYP inhibition in human liver microsomes, substrate cocktail, LC-MS/MS (dextromethorphan); format: in vitro ADME; conditions: metabolite dextrorphan, read-out: IC50 for HLM, CYP2D6
T3 construct: Pooled human liver microsomes (HLM, LOT 32556) were purchased from BD Gentest Corporation; tissue BD Gentest Corporation LOT 32556; host or cells: pooled human liver microsomes
T3 sequence (P10635 whole entry): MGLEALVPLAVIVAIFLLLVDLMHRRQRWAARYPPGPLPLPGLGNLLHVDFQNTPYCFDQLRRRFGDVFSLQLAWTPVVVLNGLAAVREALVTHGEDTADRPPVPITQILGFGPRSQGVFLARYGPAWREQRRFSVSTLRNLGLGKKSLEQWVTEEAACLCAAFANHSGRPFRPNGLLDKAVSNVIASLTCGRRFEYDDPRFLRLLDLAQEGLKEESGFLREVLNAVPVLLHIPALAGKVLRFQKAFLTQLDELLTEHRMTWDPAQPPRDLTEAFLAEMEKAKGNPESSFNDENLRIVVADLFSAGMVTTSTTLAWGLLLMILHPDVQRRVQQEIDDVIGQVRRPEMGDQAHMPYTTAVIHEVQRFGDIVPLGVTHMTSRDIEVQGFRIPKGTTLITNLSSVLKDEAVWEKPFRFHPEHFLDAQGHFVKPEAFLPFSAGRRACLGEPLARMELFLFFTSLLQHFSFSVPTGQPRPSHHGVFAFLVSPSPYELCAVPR
Text: as §1, §2

[4] = system: UGT1A6; parameters: dose or concentration left out as unconfirmed; conditions: cited from earlier work
[5] = biological target: T4, CYP1A2 (Rattus norvegicus, UniProt P04799); conditions: 30 mg/kg; cited from earlier work
T4 sequence (P04799 1-513): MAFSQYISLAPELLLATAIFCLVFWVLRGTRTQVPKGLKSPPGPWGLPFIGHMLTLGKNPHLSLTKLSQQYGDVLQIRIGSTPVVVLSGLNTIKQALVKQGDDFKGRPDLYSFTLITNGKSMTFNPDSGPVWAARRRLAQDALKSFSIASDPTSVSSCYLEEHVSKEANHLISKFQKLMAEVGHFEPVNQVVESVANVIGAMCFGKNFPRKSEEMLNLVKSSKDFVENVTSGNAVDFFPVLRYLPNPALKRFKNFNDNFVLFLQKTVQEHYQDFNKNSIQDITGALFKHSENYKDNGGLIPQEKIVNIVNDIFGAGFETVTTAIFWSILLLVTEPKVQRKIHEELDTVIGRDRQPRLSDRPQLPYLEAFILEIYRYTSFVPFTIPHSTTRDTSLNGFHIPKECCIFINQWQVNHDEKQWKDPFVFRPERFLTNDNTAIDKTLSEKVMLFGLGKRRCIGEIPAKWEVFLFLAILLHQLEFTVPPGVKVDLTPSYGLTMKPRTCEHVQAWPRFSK

## O=C(O)[C@H]1O[C@@H](Oc2cc3oc(-c4ccc(O)cc4)cc(=O)c3c(O)c2O)[C@H](O)[C@@H](O)[C@@H]1O [scutellarin, Scutellarin]
[1]
  IC50: > 100 µM
[2]
  IC50: > 100 µM
[3]
  IC50: > 100 µM
[4]
  inhibition towards the activity of UGT1A6: 20.2%
[5]
  inhibition of CYP1A2 activity in whole animal studies: weakly inhibited
